OC[C@H]1O[C@@H](Oc2ccc(O)cc2)[C@H](O)[C@@H](O)[C@@H]1O
solubility (mole fraction)
Conditions	283.15 K	288.15 K	293.15 K	298.15 K	303.15 K	308.15 K	313.15 K	318.15 K	323.15 K
in 2-butanone	0.000188	0.000212	0.000243	0.00026	0.000297	0.000346	0.000418	0.00045	0.000524
in acetone	0.000686	0.00071	0.000773	0.000799	0.000867	0.00101	0.00118	0.00127	0.00143
in acetonitrile	8.17e-05	9.3e-05	0.000124	0.000149	0.000163	0.000211	0.000236	0.000318	0.000362
in ethanol	0.00263	0.00268	0.0029	0.00309	0.00353	0.00419	0.00477	0.00551	0.0059
in ethyl acetate	8.03e-05	8.14e-05	8.6e-05	9.09e-05	9.62e-05	0.000104	0.000112	0.000124	0.000156
in ethylene glycol	0.0471	0.0486	0.0507	0.0527	0.0549	0.0572	0.0601	0.0631	0.0666
in isobutanol	0.000225	0.000279	0.000303	0.000394	0.000454	0.000572	0.000668	0.000911	0.00104
in isopropanol	0.000727	0.000858	0.0009	0.00108	0.00125	0.0016	0.00191	0.00216	0.00261
in methanol	0.0113	0.0117	0.0123	0.0132	0.0143	0.016	0.0176	0.0191	0.0221
in methyl acetate	0.000112	0.000129	0.00014	0.000154	0.000185	0.000239	0.000277	0.000353	0.00041
in n-butanol	0.000376	0.000499	0.000566	0.000699	0.00075	0.001	0.00115	0.00131	0.00144
in n-propanol	0.000764	0.000889	0.00103	0.00115	0.00128	0.00155	0.00181	0.00207	0.0023

From BigSolDB 2.1
